From patent US8022180B2, “Method for preventing and treating Alzheimer's disease” (Affiris Forschungs-und Entwicklungs GmbH, priority 2004, dated 2011) come the findings set out here.

“Also recorded” adds a separate entry of the source. Where a SMILES comes first, the peptide text is derived from it. Where no end group is shown, it is not given here.

Experiment [1] relates to DAEFRH (SEQ ID NO: 26)-specific mAb. Nature of the experiment: ELISA with peptide libraries (detection by biotinylated DAEFRH-specific mAb). It is filed as binding, mice. The conditions noted are these: mimotopes from libraries 1-3. The source says:
(§1) Mice are vaccinated with the 6mer peptide DAEFRH (SEQ ID NO: 26) (natural N-terminal Aβ42 sequence) linked to the protein bovine serum albumin BSA (to make use of the hapten-carrier-effect), emulsified in CFA (first injection) and IFA (booster injections). DAEFRH (SEQ ID NO: 26)-peptide-specific, antibody-producing hybridomas are detected by ELISA (DAEFRH (SEQ ID NO: 26)-peptide-coated ELISA plates).
As mentioned above, peptide libraries 1, 2, and 3 are generated with an Applied Biosystems 431A peptide synthesizer following classical Fmoc-chemistry. The commercially available peptide library 4 is generated according to the manufacturer's description (see above and under www.mimotopes.com). The 90 peptides are C-terminally linked to a pin.
The ELISA with each of the peptide libraries have been carried out following standard protocols:
The peptide library is dissolved in 100% DMSO (final concentration 10 mg/ml).
The peptide solution is further diluted in PBS.
The peptide mixture is coated overnight (4° C.) onto ELISA plates (Nunc Maxisorp, Germany), starting with 500 μg/well, and titrated to 100 ng/well.
The plates are washed 3× times with PBS/Tween 20 (0.1% v/v).
The plates are blocked with PBS/BSA (2 h at room temperature).
The plates are washed 3× times with PBS/Tween.
The plates are incubated with biotinylated DAEFRH (SEQ ID NO: 26)-specific mAb (10 μg/ml in PBS) for 4 h at room temperature.
The plates are incubated with streptavidin-horseradish-peroxidase (30 min at room temperature).
The plates are washed 5× times with PBS/Tween.
The plates are incubated with ABTS+H2O2 (0.1% w/v; 10 to 45 min) and the reaction is stopped with citric acid followed by photometric evaluation (wavelength 405 nm).

The subject of experiment [2] is monoclonal antibody specific for the natural N-terminal Aβ42 sequence DAEFRH. Nature of the experiment: Inhibition assay: mimotope peptides compete with plate-bound DAEFRH-BSA for recognition by the biotinylated monoclonal antibody (ELISA). The experiment is classed as binding, mice. Details: key to inhibition (s/m/—): s: strong inhibition; m: moderate inhibition; —: no inhibition. Particulars: for inhibition of epitope recognition by the monoclonal antibody (in words): FIGS. 2-9; for Inhibitory capacity of mimotopes: summary Tables 1 and 2, in words; for IC50 (inhibition of monoclonal antibody binding to the original epitope): competition ELISA, plate-bound DAEFRH-BSA, peptides 20 min at 37° C.; for inhibition (s/m/—): peptides of the new screening round and 5mers with non natural amino acids; for concentration at which the peptide is only inhibitory: only inhibitory at a (relatively) high concentration.
Description: 1.: Generation of Monoclonal Antibodies (mAb) to Detect Aβ42-Derived Peptide Species with Free N-Terminus (Free Aspartic Acid at the N-Terminus)
as §1
FIGS. 2 and 3 describe the results of inhibition assays performed with mimotope peptides included in and obtained from the 5 libraries (as described). The mimotope peptides compete with the original epitope for recognition by the monoclonal antibody. Original epitope and mimotope peptides contain an additional C at the C-terminus for coupling to a protein carrier (if desired).
(§2) After blocking with PBS/BSA 1% (200 μl/well, 12 h, 4° C.), the plates are washed 3× times with PBS/Tween. Then, biotinylated monoclonal antibody (1:2000, 50 μl/well) and peptides (50 μl/well) at 50, 5, 0.5, 0.05, 0.005, and 0.0005 μg/ml are added for 20 min. at 37° C. The plates are washed 3× times with PBS/Tween and are incubated with horseradish peroxidase (HRP)-labeled streptavidin (100 μl/well, 30 min, RT). The plates are washed 5× times with PBS/Tween and are incubated with ABTS+H2O2 (0.1% w/v, 10 to 45 min) and the reaction is stopped with citric acid followed by photometric evaluation (wavelength 405 nm).
FIGS. 4 and 5 describe the results of inhibition assays performed with mimotope peptides included in and obtained from the 5 libraries (as described). The mimotope peptides compete with the original epitope for recognition by the monoclonal antibody. Original epitope and mimotope peptides contain an additional C at the C-terminus (position 7) for coupling to a protein carrier (if desired).
as §2, with “different concentrations” for “50, 5, 0.5, 0.05, 0.005, and 0.0005 μg/ml”
FIGS. 6 to 8 describe the results of inhibition assays performed with mimotope peptides included in and obtained from the 2 libraries (as described above). The mimotope peptides compete with the original epitope for recognition by the monoclonal antibody. Original epitope and mimotope peptides contain an additional C at the C-terminus (position 7 or position 8, respectively) for coupling to a protein carrier (if desired).

Turning to DIDYHR, in experiment [1], the “detection by the monoclonal antibody” value is “can be detected by the monoclonal antibody”.
The same measure, in the same setting: the entry for DVDYHR is “can be detected by the monoclonal antibody”.
On the same count and under the same terms, in the case of DLDYRR it was “can be detected by the monoclonal antibody”.
On the same count and under the same terms, in the case of EVDYHR it was “can be detected by the monoclonal antibody”.
Consider `CC[C@H](C)[C@H](NC(=O)[C@H](CCCCN)NC(=O)[C@H](CC(C)C)NC(=O)[C@H](CCC(=O)O)NC(=O)[C@H](CCCCN)NC(=O)[C@@H](N)CC(=O)O)C(=O)N[C@@H](CS)C(=O)O` [Peptide 1236, DKELKI], for which, in experiment [2], the “inhibition of epitope recognition by the monoclonal antibody (in words)” value (“inhibition of epitope recognition” for short) is listed as “block epitope recognition” and the “Inhibitory capacity of mimotopes” value is listed as “weak”.
With `N=C(N)NCCC[C@H](NC(=O)[C@H](Cc1ccccc1)NC(=O)[C@H](CCC(=O)O)NC(=O)[C@H](Cc1ccc(O)cc1)NC(=O)[C@@H](N)CC(=O)O)C(=O)NCC(=O)N[C@@H](CS)C(=O)O` [Peptide 3007, DYEFRG], in experiment [2], the “inhibition of epitope recognition” value is given as “block epitope recognition” and the “Inhibitory capacity of mimotopes” value is on record as “strong”.
On to `N=C(N)NCCC[C@H](NC(=O)[C@H](Cc1ccccc1)NC(=O)[C@H](CCC(=O)O)NC(=O)[C@H](Cc1ccc(O)cc1)NC(=O)[C@@H](N)CCC(=O)O)C(=O)NCC(=O)N[C@@H](CS)C(=O)O` [Peptide 1239, EYEFRG], for which, in experiment [2], the “inhibition of epitope recognition” value is recorded as “block epitope recognition”, the “IC50 (inhibition of monoclonal antibody binding to the original epitope)” value is given as “more than 0.5 μg/ml” and the “Inhibitory capacity of mimotopes” value was “intermediate”.
GAEFRFT [Peptide 4014]: in experiment [2], the “inhibition of epitope recognition” value is recorded as “moderately inhibit binding” and the “inhibition (s/m/—)” value is listed as “m”.
On to ELDYHR, for which, in experiment [1], the “detection by the monoclonal antibody” value is reported as “can be detected by the monoclonal antibody”.
Take `CCCC[C@H](NC(=O)[C@H](CCC(=O)O)NC(=O)[C@H](CCCCN)NC(=O)[C@@H](N)CC(=O)O)C(=O)N[C@@H](CCCNC(=N)N)C(=O)N[C@@H](CS)C(=O)O` [Peptide 4062, DKE(Nle)R] (HELM PEPTIDE1{D.K.E.[Nle].R.C}$$$$V2.0): in experiment [2], the “inhibition of epitope recognition” value is reported as “block epitope recognition” and the “inhibition (s/m/—)” value was “m”.
On to `CC[C@H](C)[C@H](NC(=O)[C@H](CCCNC(=N)N)NC(=O)[C@H](CC(C)C)NC(=O)[C@H](CCC(=O)O)NC(=O)[C@H](Cc1c[nH]c2ccccc12)NC(=O)[C@@H](N)CC(=O)O)C(=O)N[C@@H](CS)C(=O)O` [Peptide 3002, DWELRI], for which, in experiment [2], the “inhibition of epitope recognition” value is given as “block epitope recognition” and the “Inhibitory capacity of mimotopes” value was “intermediate”.
`C[C@@H](O)[C@H](NC(=O)[C@H](CCCNC(=N)N)NC(=O)[C@H](Cc1ccccc1)NC(=O)[C@H](CCC(=O)O)NC(=O)[C@H](Cc1c[nH]c2ccccc12)NC(=O)[C@@H](N)CO)C(=O)N[C@@H](CS)C(=O)O` [Peptide 4002, SWEFRT]: in experiment [2], the “inhibition of epitope recognition” value is given as “block epitope recognition”, the “IC50 (inhibition of monoclonal antibody binding to the original epitope)” value is on record as “less than 0.4 μg/ml” and the “Inhibitory capacity of mimotopes” value is “strong”.
For the molecule `CC[C@H](C)[C@H](NC(=O)[C@H](CCCNC(=N)N)NC(=O)[C@H](CC(C)C)NC(=O)[C@H](CCC(=O)O)NC(=O)[C@H](CCCCN)NC(=O)[C@@H](N)CC(=O)O)C(=O)N[C@@H](CS)C(=O)O` [Peptide 3001, DKELRI], in experiment [2], the “inhibition of epitope recognition” value was “block epitope recognition” and the “Inhibitory capacity of mimotopes” value is on record as “strong”.
For `N=C(N)NCCC[C@H](NC(=O)[C@H](Cc1ccccc1)NC(=O)[C@H](CCC(=O)O)NC(=O)[C@H](Cc1ccccc1)NC(=O)[C@@H](N)CO)C(=O)NCC(=O)N[C@@H](CS)C(=O)O` [Peptide 3009, SFEFRG], the “Inhibitory capacity of mimotopes” value in experiment [2] was “weak”.
Turning to DIDYRR, the “detection by the monoclonal antibody” value in experiment [1] was “can be detected by the monoclonal antibody”.
With SWEFRLY [Peptide 4018], in experiment [2], the “inhibition of epitope recognition” value is “strongly block epitope recognition” and the “inhibition (s/m/—)” value is given as “s”.
As for KKELRI [Peptide 1234], in experiment [2], the “inhibition of epitope recognition” value is given as “hardly inhibitory at the concentrations tested” and the “Inhibitory capacity of mimotopes” value is “none”.
Consider SWFRNP [Peptide 4019], for which, in experiment [2], the “inhibition of epitope recognition” value is recorded as “not inhibitory at the concentrations tested” and the “inhibition (s/m/—)” value is “—”.
For the molecule “DAEFRH (not fully specified (C-terminus); listed as Homo sapiens) [Peptide 1737, reference compound]”, the “inhibition of epitope recognition” value in experiment [2] was “inhibits recognition by the monoclonal antibody; also recorded: can successfully compete”.
YREFFI [Peptide 3003]: in experiment [2], the “inhibition of epitope recognition” value is “not able to inhibit binding” and the “Inhibitory capacity of mimotopes” value is recorded as “none”.
On to EIDYHR, for which the “detection by the monoclonal antibody” value in experiment [1] was “can be detected by the monoclonal antibody”.
On the same count and under the same terms, the entry for DVDYRR is “can be detected by the monoclonal antibody”.
On the same count and under the same terms, the entry for DLDYHR is “can be detected by the monoclonal antibody”.
In the case of `CC(C)C[C@H](NC(=O)[C@@H](N)CCC(=O)O)C(=O)N[C@@H](CCC(=O)O)C(=O)N[C@@H](Cc1ccccc1)C(=O)N[C@@H](CCCNC(=N)N)C(=O)NCC(=O)N[C@@H](CS)C(=O)O` [Peptide 3008, ELEFRG], the “Inhibitory capacity of mimotopes” value in experiment [2] was “weak”.
As for SAEFRTQ [Peptide 4015], in experiment [2], the “inhibition of epitope recognition” value is reported as “strongly block epitope recognition” and the “inhibition (s/m/—)” value was “s”.
Regarding GREFRN [Peptide 4003], in experiment [2], the “inhibition of epitope recognition” value is recorded as “block epitope recognition”, the “concentration at which the peptide is only inhibitory” value is 10 µg/mL and the “Inhibitory capacity of mimotopes” value is given as “weak”.
For the molecule `C[C@H](NC(=O)[C@@H](N)Cc1ccc(O)cc1)C(=O)N[C@@H](CCC(=O)O)C(=O)N[C@@H](Cc1ccccc1)C(=O)N[C@@H](CCCNC(=N)N)C(=O)NCC(=O)N[C@@H](CS)C(=O)O` [Peptide 3005, YAEFRG], in experiment [2], the “inhibition of epitope recognition” value is listed as “block epitope recognition” and the “Inhibitory capacity of mimotopes” value is “intermediate”.
As for YREFRI [Peptide 3004], in experiment [2], the “inhibition of epitope recognition” value is reported as “block epitope recognition”, the “concentration at which the peptide is only inhibitory” value was 50 µg/mL and the “Inhibitory capacity of mimotopes” value is recorded as “weak”.
DNEFRSP [Peptide 4012]: in experiment [2], the “inhibition of epitope recognition” value is “moderately inhibit binding” and the “inhibition (s/m/—)” value is listed as “s”.
